# Where two headings read alike, the source gives them in different places.
# Key:
# [1] = test system: A. baumannii 14B00100 (Acinetobacter sp., BCRC number 14B0100)
# Procedure, shortened: (§1)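 MICs came from CLSI broth microdilution, with 5 × 10^5 CFU/mL bacteria exposed to peptide at final 0.78–50 µg/mL. Media were MH broth or LYM broth (pH 7.4), the latter also adjusted for salt (NaCl 50–300 mM, MgCl2 0.5–2.5 mM) or acidity (pH 4.5–6.5); triplicate independent experiments.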
# S. aureus ATCC 25923 = test system: S. aureus ATCC 25923
# Procedure, shortened: as §1
# [2] = test system: A. baumannii 14B0091 (Acinetobacter sp., BCRC number 14B0091)
# Procedure, shortened: as §1
# S. aureus ATCC 33593 = test system: S. aureus ATCC 33593
# Procedure, shortened: as §1
# [3] = test system: Escherichia coli (ATCC 25922)
# Procedure, shortened: as §1
# [4] = test system: Pseudomonas aeruginosa Migula (ATCC 27853)
# Procedure, shortened: as §1
# S. aureus ATCC 33591 = test system: S. aureus ATCC 33591
# Procedure, shortened: as §1
# [5] = LYM broth, 0 mM NaCl, 16 h, 37 °C
# [6] = LYM broth, 50 mM NaCl, 16 h, 37 °C
# [7] = LYM broth, 100 mM NaCl, 16 h, 37 °C
# [8] = LYM broth, 200 mM (NaCl), 16 h, 37 °C
# [9] = LYM broth, 300 mM (NaCl), 16 h, 37 °C
# [10] = MH broth, 5 × 10^5 CFU/mL, 16 h, 37 °C, repeated three times
substance,measurement,setting,value
Ac-WLAKKKKWRKWLK-NH2 [Peptide W5K08],MIC,[1]; [5],3.13 µg/mL
same,MIC,"[1]; LYM broth, 0.5 mM MgCl2",3.13 µg/mL
same,MIC,"[1]; LYM broth, 1.5 mM MgCl2",3.13 µg/mL
same,MIC,"[1]; LYM broth, 2.5 mM MgCl2",6.25 µg/mL
same,MIC,[1]; [6],6.25 µg/mL
same,MIC,[1]; [7],25 µg/mL
same,MIC,[1]; [8],>50 µg/mL
same,MIC,[1]; [9],>50 µg/mL
same,MIC,"[1]; LYM broth, pH 4.5",3.13 µg/mL
same,MIC,"[1]; LYM broth, pH 5.5",3.13 µg/mL
same,MIC,"[1]; LYM broth, pH 6.5",3.13 µg/mL
same,MIC,[1]; [10],>50 µg/mL
same,MIC,S. aureus ATCC 25923; [5],1.56 µg/mL
same,MIC,"S. aureus ATCC 25923; LYM broth, 0.5 mM MgCl2",3.13 µg/mL
same,MIC,"S. aureus ATCC 25923; LYM broth, 1.5 mM MgCl2",6.25 µg/mL
same,MIC,"S. aureus ATCC 25923; LYM broth, 2.5 mM MgCl2",6.25 µg/mL
same,MIC,S. aureus ATCC 25923; [6],3.13 µg/mL
same,MIC,S. aureus ATCC 25923; [7],12.5 µg/mL
same,MIC,S. aureus ATCC 25923; [8],50 µg/mL
same,MIC,S. aureus ATCC 25923; [9],>50 µg/mL
same,MIC,"S. aureus ATCC 25923; LYM broth, pH 4.5",3.13 µg/mL
same,MIC,"S. aureus ATCC 25923; LYM broth, pH 5.5",3.13 µg/mL
same,MIC,"S. aureus ATCC 25923; LYM broth, pH 6.5",1.56 µg/mL
same,MIC,S. aureus ATCC 25923; [10],25 µg/mL
same,MIC,[2]; [5],3.13 µg/mL
same,MIC,"[2]; LYM broth, 0.5 mM MgCl2",3.13 µg/mL
same,MIC,"[2]; LYM broth, 1.5 mM MgCl2",3.13 µg/mL
same,MIC,"[2]; LYM broth, 2.5 mM MgCl2",6.25 µg/mL
same,MIC,[2]; [6],6.25 µg/mL
same,MIC,[2]; [7],25 µg/mL
same,MIC,[2]; [8],>50 µg/mL
same,MIC,[2]; [9],>50 µg/mL
same,MIC,"[2]; LYM broth, pH 4.5",6.25 µg/mL
same,MIC,"[2]; LYM broth, pH 5.5",3.13 µg/mL
same,MIC,"[2]; LYM broth, pH 6.5",3.13 µg/mL
same,MIC,[2]; [10],>50 µg/mL
same,MIC,S. aureus ATCC 33593; [5],25 µg/mL
same,MIC,"S. aureus ATCC 33593; LYM broth, 0.5 mM MgCl2",25 µg/mL
same,MIC,"S. aureus ATCC 33593; LYM broth, 1.5 mM MgCl2",25 µg/mL
same,MIC,"S. aureus ATCC 33593; LYM broth, 2.5 mM MgCl2",50 µg/mL
same,MIC,S. aureus ATCC 33593; [6],50 µg/mL
same,MIC,S. aureus ATCC 33593; [7],50 µg/mL
same,MIC,S. aureus ATCC 33593; [8],>50 µg/mL
same,MIC,S. aureus ATCC 33593; [9],>50 µg/mL
same,MIC,"S. aureus ATCC 33593; LYM broth, pH 4.5",25 µg/mL
same,MIC,"S. aureus ATCC 33593; LYM broth, pH 5.5",12.5 µg/mL
same,MIC,"S. aureus ATCC 33593; LYM broth, pH 6.5",12.5 µg/mL
same,MIC,S. aureus ATCC 33593; [10],>50 µg/mL
same,MIC,[3]; [5],3.13 µg/mL
same,MIC,"[3]; LYM broth, 0.5 mM MgCl2",6.25 µg/mL
same,MIC,"[3]; LYM broth, 1.5 mM MgCl2",6.25 µg/mL
same,MIC,"[3]; LYM broth, 2.5 mM MgCl2",6.25 µg/mL
same,MIC,[3]; [6],12.5 µg/mL
same,MIC,[3]; [7],12.5 µg/mL
same,MIC,[3]; [8],50 µg/mL
same,MIC,[3]; [9],>50 µg/mL
same,MIC,"[3]; LYM broth, pH 4.5",3.13 µg/mL
same,MIC,"[3]; LYM broth, pH 5.5",3.13 µg/mL
same,MIC,"[3]; LYM broth, pH 6.5",3.13 µg/mL
same,MIC,[3]; [10],50 µg/mL
same,MIC,[4]; [5],3.13 µg/mL
same,MIC,"[4]; LYM broth, 0.5 mM MgCl2",3.13 µg/mL
same,MIC,"[4]; LYM broth, 1.5 mM MgCl2",6.25 µg/mL
same,MIC,"[4]; LYM broth, 2.5 mM MgCl2",12.5 µg/mL
same,MIC,[4]; [6],6.25 µg/mL
same,MIC,[4]; [7],25 µg/mL
same,MIC,[4]; [8],50 µg/mL
same,MIC,[4]; [9],>50 µg/mL
same,MIC,"[4]; LYM broth, pH 4.5",6.25 µg/mL
same,MIC,"[4]; LYM broth, pH 5.5",3.13 µg/mL
same,MIC,"[4]; LYM broth, pH 6.5",3.13 µg/mL
same,MIC,[4]; [10],25 µg/mL
same,MIC,S. aureus ATCC 33591; [5],25 µg/mL
same,MIC,"S. aureus ATCC 33591; LYM broth, 0.5 mM MgCl2",25 µg/mL
same,MIC,"S. aureus ATCC 33591; LYM broth, 1.5 mM MgCl2",50 µg/mL
same,MIC,"S. aureus ATCC 33591; LYM broth, 2.5 mM MgCl2",50 µg/mL
same,MIC,S. aureus ATCC 33591; [6],50 µg/mL
same,MIC,S. aureus ATCC 33591; [7],50 µg/mL
same,MIC,S. aureus ATCC 33591; [8],50 µg/mL
same,MIC,S. aureus ATCC 33591; [9],>50 µg/mL
same,MIC,"S. aureus ATCC 33591; LYM broth, pH 4.5",25 µg/mL
same,MIC,"S. aureus ATCC 33591; LYM broth, pH 5.5",25 µg/mL
same,MIC,"S. aureus ATCC 33591; LYM broth, pH 6.5",12.5 µg/mL
same,MIC,S. aureus ATCC 33591; [10],>50 µg/mL

# Reference: publication PMC12649549, “Sequence Permutation Generated Lysine and Tryptophan-Rich Antimicrobial Peptides with Enhanced Therapeutic Index” (Antibiotics, 2025)
